Measurements published in patent US20260174179A1, “ANTI-INFECTIVE SHOE SOLES” (priority 2019, published 2026).

Test system: Pseudomonas aeruginosa (PAO)
Assay: Kirby-Bauer disk diffusion test, agar overlay culture
Type: cell-based
Settings: 6 mm disk, 24 hours at 37° C.
Method: FIG. 13 is a schematic illustrating a Kirby-Bauer Disk Diffusion test. Bacterial cells are plated from a broth culture onto sterile agar petri dishes, and antibiotic soaked paper disks (or control disks without antibiotic) are placed directly on the dish. After 24 or more hours, a confluent layer of bacteria appear to grow up on the dish. Clearing or clear but hazy zones indicate antibiotic sensitivity of the test microbe. The size of the killing zone reflects how well the antibiotic diffuses into the agar and sensitivity of the organism.
FIG. 14A is an image showing the results of a Disk Diffusion test with Pseudomonas aeruginosa (PAO). Three disks were placed on a PAO/agar overlay culture: a penicillin-soaked paper disk, a negative control (no treatment) paper disk, and a sterile punch disk of pure elemental sheet copper, and the culture was incubated for 24 hours. Zones of inhibition are marked as clearing zones (dashed circles) where bacterial growth was stunted. […]
In some studies, a disk-diffusion test was used as a model for testing diffusion and bacterial targeting (FIG. 13). […] The bacteria were allowed to grow on the agar media, and growth was observed using a simple read-out: a zone of clearing around a disk indicated no bacterial growth, and conversely, the lack of a clearing perimeter indicated bacterial resistance. […]

## penicillin
  clearing extended from the edge of the disk: 5-7 mm
FIG. 14A
  killing zone: 6 mm
